The target in one assay is T1, HDAC9 (Homo sapiens, UniProt Q9UKV0).
T1 construct: Recombinant, full-length HDAC protein (BPS Biosciences) was incubated with fluorophore conjugated substrate; purchased BPS Biosciences
Nature of the assay: In vitro HDAC enzyme inhibition assay, HDAC9. In kind it is biochemical. The note with it: for HDAC9/HDAC6 in vitro selectivity: ratio of IC50 for HDAC9 relative to that of HDAC6; for IC50: recombinant full-length HDAC9, substrate MAZ1675 26 μM. The procedure, abridged: (§1)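 Deacetylase activity of full-length recombinant HDAC assessed via trypsin-coupled AMC release from substrate at Km concentration, pH 7.4 buffer with TCEP. Kinetic fluorescence slopes were normalized to controls.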

Another assay deals with T2, HDAC7 (Homo sapiens, UniProt Q8WUI4).
T2 construct: Recombinant, full-length HDAC protein (BPS Biosciences) was incubated with fluorophore conjugated substrate; purchased BPS Biosciences
T2 sequence (Q8WUI4 1-952): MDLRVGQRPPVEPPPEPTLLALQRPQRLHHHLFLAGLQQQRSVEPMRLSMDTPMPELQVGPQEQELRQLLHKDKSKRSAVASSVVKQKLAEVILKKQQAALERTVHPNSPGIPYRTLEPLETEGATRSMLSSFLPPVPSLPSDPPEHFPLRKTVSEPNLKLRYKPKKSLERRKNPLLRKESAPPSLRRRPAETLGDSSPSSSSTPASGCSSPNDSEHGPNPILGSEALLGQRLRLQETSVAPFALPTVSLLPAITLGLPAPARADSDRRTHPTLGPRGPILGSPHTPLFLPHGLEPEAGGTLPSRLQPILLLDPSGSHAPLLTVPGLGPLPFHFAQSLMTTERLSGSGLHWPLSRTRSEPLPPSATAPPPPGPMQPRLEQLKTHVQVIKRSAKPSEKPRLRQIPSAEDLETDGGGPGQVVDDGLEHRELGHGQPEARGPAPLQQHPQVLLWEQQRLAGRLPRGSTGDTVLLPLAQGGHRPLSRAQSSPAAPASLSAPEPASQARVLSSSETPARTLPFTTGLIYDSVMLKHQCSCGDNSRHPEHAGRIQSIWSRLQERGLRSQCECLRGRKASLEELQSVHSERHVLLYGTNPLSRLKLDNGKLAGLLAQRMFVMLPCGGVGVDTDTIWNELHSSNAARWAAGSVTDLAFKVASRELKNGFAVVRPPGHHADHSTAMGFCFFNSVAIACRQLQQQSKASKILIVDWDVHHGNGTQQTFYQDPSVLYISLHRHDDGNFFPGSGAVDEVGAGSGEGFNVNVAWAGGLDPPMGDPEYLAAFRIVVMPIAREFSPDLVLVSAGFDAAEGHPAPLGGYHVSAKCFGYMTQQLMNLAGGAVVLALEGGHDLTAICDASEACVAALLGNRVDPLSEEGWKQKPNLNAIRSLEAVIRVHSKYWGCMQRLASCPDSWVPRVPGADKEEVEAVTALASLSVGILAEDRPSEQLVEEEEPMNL
Kind of assay: In vitro HDAC enzyme inhibition assay, HDAC7. In kind it is biochemical. The settings on record: for HDAC7/HDAC6 in vitro selectivity: ratio of IC50 for HDAC7 relative to that of HDAC6; for IC50: recombinant full-length HDAC7, substrate MAZ1675 22 μM. The procedure, abridged: as §1

The next assay has as its target T3, HDAC3 (Homo sapiens, UniProt O15379).
T3 construct: Recombinant, full-length HDAC protein (BPS Biosciences) was incubated with fluorophore conjugated substrate; purchased BPS Biosciences
Nature of the assay: In vitro HDAC enzyme inhibition assay, HDAC3. Type of assay: biochemical. The settings on record: for HDAC3/HDAC6 in vitro selectivity: ratio of IC50 for HDAC3 relative to that of HDAC6; for IC50: recombinant full-length HDAC3, substrate MAZ1600 9 μM. The procedure, abridged:
as §1

For another assay, the target named is T4, HDAC8 (Homo sapiens, UniProt Q9BY41).
T4 construct: Recombinant, full-length HDAC protein (BPS Biosciences) was incubated with fluorophore conjugated substrate; purchased BPS Biosciences
T4 sequence (Q9BY41 1-377): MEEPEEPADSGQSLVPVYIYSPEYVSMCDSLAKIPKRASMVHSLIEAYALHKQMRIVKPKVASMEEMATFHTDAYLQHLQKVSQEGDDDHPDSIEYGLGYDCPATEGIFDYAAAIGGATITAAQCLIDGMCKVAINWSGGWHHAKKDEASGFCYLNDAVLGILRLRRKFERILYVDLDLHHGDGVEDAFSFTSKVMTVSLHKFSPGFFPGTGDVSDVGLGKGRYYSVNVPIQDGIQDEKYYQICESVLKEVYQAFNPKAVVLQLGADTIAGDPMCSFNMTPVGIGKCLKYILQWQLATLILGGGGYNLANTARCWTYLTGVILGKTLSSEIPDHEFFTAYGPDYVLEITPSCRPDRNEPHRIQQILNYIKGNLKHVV
Nature of the assay: In vitro HDAC enzyme inhibition assay, HDAC8. Type of assay: biochemical. The note with it: for HDAC8/HDAC6 in vitro selectivity: ratio of IC50 for HDAC8 relative to that of HDAC6; for IC50: recombinant full-length HDAC8, substrate MAZ1675 282 μM. A digest of the protocol: as §1

The target in the next assay is T5, HDAC2 (Homo sapiens, UniProt Q92769).
T5 construct: Recombinant, full-length HDAC protein (BPS Biosciences) was incubated with fluorophore conjugated substrate; purchased BPS Biosciences
T5 sequence (Q92769 whole entry): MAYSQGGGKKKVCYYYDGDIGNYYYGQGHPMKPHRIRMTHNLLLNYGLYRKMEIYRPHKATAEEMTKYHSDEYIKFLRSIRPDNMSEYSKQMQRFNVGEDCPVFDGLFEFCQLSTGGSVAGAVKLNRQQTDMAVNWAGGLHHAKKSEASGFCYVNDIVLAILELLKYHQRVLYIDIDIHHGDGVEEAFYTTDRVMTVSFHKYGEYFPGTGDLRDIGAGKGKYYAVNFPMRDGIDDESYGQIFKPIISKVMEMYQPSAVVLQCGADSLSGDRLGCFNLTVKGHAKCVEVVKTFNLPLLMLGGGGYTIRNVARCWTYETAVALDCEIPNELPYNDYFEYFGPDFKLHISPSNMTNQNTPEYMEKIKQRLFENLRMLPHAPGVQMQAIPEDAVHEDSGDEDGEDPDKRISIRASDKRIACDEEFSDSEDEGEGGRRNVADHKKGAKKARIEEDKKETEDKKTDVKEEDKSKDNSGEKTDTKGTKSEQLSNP
Nature of the assay: In vitro HDAC enzyme inhibition assay, HDAC2. In kind it is biochemical. The settings on record: for HDAC2/HDAC6 in vitro selectivity: ratio of IC50 for HDAC2 relative to that of HDAC6; for IC50: recombinant full-length HDAC2, substrate MAZ1600 22 μM. A digest of the protocol:
as §1

A further assay has as its target T6, HDAC5 (Homo sapiens, UniProt Q9UQL6).
T6 construct: Recombinant, full-length HDAC protein (BPS Biosciences) was incubated with fluorophore conjugated substrate; purchased BPS Biosciences
Nature of the assay: In vitro HDAC enzyme inhibition assay, HDAC5. Type of assay: biochemical. The note with it: for HDAC5/HDAC6 in vitro selectivity: ratio of IC50 for HDAC5 relative to that of HDAC6; for IC50: recombinant full-length HDAC5, substrate MAZ1675 40 μM. A digest of the protocol:
as §1

Another assay concerns acetylated tubulin. Kind of assay: High-content image analysis of induction of acetylated tubulin in A549 cells. The note with it: for EC50: Homo sapiens, A549, 8 h, read-out: EC50 for half-maximal induction of acetylated tubulin (AcTubulin); for AcHistone/AcTubulin in cell selectivity toward HDAC6: ratio of EC50 acetylated histone to EC50 acetylated tubulin, A549 cells.

Usually IC50 stands for the concentration at which inhibition is half-maximal. By EC50 is commonly meant the concentration at which the effect is half-maximal.

T1 sequence (Q9UKV0 whole entry): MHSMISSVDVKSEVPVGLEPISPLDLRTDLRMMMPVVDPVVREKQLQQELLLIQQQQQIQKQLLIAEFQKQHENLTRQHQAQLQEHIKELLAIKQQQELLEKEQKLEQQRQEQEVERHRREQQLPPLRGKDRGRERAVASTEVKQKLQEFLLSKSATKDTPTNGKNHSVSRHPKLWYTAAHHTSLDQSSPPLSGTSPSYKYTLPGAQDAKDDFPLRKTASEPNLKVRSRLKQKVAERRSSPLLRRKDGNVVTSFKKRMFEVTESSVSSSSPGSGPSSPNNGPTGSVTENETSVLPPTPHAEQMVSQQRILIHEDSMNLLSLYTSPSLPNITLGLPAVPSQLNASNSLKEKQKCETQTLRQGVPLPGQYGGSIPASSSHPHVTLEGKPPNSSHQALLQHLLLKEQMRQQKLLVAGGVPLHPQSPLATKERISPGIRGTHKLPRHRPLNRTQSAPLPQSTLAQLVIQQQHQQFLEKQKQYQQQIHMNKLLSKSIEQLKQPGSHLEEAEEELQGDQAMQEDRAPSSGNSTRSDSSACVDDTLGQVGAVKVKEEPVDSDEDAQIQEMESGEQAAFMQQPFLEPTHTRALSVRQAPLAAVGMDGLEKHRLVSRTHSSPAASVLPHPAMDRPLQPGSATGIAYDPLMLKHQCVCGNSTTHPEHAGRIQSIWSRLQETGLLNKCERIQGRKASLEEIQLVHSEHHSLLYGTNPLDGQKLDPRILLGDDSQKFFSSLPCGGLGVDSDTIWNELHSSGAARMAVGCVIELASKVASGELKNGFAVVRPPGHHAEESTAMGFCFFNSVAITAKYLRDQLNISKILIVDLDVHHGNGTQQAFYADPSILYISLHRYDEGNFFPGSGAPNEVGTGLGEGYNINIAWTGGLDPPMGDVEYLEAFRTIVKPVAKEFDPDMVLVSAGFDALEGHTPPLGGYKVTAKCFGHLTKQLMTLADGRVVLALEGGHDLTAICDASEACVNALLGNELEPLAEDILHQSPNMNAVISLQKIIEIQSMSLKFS
T6 sequence (Q9UQL6 whole entry): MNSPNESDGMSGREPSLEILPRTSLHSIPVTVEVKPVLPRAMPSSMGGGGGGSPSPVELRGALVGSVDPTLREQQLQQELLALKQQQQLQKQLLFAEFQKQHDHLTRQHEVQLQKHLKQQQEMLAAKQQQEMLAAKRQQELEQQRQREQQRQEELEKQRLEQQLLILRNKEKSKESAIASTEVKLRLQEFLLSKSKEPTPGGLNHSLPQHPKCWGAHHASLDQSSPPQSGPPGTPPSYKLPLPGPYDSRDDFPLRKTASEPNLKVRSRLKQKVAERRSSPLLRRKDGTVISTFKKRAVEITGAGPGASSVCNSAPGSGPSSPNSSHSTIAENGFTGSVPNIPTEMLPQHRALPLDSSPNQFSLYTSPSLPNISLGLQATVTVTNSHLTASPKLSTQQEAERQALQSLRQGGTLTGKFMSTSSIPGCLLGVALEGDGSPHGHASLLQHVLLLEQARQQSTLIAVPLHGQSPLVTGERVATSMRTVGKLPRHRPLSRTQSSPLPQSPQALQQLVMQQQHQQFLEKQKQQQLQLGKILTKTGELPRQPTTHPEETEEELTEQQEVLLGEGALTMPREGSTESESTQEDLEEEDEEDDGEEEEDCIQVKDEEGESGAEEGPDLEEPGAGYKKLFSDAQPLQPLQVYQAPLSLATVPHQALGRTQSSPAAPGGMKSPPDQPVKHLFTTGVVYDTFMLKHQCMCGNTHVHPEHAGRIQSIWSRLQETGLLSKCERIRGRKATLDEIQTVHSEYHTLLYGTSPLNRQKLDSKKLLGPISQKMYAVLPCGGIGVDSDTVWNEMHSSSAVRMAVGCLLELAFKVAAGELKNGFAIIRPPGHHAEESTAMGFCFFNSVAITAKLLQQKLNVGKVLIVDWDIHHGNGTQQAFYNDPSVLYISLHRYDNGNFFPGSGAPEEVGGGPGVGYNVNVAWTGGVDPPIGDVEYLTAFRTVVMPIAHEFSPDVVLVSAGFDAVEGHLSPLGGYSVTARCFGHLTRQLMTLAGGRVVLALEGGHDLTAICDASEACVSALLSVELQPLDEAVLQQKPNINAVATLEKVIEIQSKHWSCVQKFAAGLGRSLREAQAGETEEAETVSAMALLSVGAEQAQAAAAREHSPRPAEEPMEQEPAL
T3 sequence (O15379 whole entry): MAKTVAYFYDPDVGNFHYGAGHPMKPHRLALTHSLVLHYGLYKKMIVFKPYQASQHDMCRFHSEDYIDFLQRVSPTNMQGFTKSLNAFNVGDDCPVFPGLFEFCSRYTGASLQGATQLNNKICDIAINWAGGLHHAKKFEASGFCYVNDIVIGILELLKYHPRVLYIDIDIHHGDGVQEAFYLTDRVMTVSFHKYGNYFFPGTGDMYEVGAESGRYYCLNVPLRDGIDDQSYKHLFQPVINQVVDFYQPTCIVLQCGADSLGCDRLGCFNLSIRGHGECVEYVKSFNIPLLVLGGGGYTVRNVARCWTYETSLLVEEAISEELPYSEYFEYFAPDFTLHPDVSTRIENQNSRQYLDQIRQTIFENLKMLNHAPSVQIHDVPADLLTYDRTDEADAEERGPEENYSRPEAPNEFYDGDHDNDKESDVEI
T3 sequence (Q9Y618 395-489 partner limits assumed): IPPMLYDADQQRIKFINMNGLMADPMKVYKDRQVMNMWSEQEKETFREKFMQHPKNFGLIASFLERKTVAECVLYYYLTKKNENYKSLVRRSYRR

Turning to `O=C(NO)c1ccc(Cn2nnc3cc(Cl)ccc32)cc1` [C4, 4-((5-chloro-1H-benzo[d][1,2,3]triazol-1-yl)methyl)-N-hydroxybenzamide], at HDAC9, the “HDAC9/HDAC6 in vitro selectivity” value was found to be 26037 and the IC50 is 1440 nM. Also, at HDAC7, the “HDAC7/HDAC6 in vitro selectivity” value worked out at 7608 and the IC50 stood at 420 nM. Besides, at HDAC3, the “HDAC3/HDAC6 in vitro selectivity” value was found to be 3920 and the IC50 came to 216 nM. On HDAC8, the “HDAC8/HDAC6 in vitro selectivity” value is recorded as 11132 and the half-inhibitory concentration (IC50) amounted to 615 nM. Moreover, on HDAC2, the “HDAC2/HDAC6 in vitro selectivity” value amounted to 2562 and the IC50 was 141 nM. Further, at HDAC5, the “HDAC5/HDAC6 in vitro selectivity” value came out at 26352 and the 50% inhibitory concentration (IC50) amounted to 1460 nM. Further, in the assay with acetylated tubulin, the EC50 is 1920 nM and the “AcHistone/AcTubulin in cell selectivity toward HDAC6” value worked out at 3.137.
As for `O=C(NO)c1ccc(Cn2nnc3cc(Br)ccc32)cc1` [C5, 4-((5-bromo-1H-benzo[d][1,2,3]triazol-1-yl)methyl)-N-hydroxybenzamide], on HDAC9, the “HDAC9/HDAC6 in vitro selectivity” value came out at 42107 and the IC50 came to 1090 nM. The “selectivity toward HDAC6 compared to HDAC9 (in words)” value on HDAC9 (tested in vitro) is given as “exceptionally high selectivity (Inhibitors with in vitro selectivity values for HDAC6 of at least 30,000 are considered to have exceptionally high selectivity toward HDAC6)”. For the same molecule, on HDAC7, the “HDAC7/HDAC6 in vitro selectivity” value was 11817 and the IC50 was found to be 305 nM. On HDAC3, the “HDAC3/HDAC6 in vitro selectivity” value is 4479 and the IC50 stood at 115 nM. Also, on HDAC8, the “HDAC8/HDAC6 in vitro selectivity” value turned out to be 16483 and the IC50 was found to be 425 nM. In addition, on HDAC2, the “HDAC2/HDAC6 in vitro selectivity” value is listed as 3277 and the half-maximal inhibitory concentration (IC50) was found to be 84.5 nM. For the same molecule, on HDAC5, the “HDAC5/HDAC6 in vitro selectivity” value is recorded as 48751 and the IC50 turned out to be 1260 nM. Besides, the “selectivity toward HDAC6 compared to HDAC5 (in words)” value on HDAC5 (tested in vitro) is listed as “exceptionally high selectivity (Inhibitors with in vitro selectivity values for HDAC6 of at least 30,000 are considered to have exceptionally high selectivity toward HDAC6)”. Besides, in the assay on acetylated tubulin, the EC50 stood at 150 nM and the “AcHistone/AcTubulin in cell selectivity toward HDAC6” value was 15.37.

These data come from patent US20150197497A1, “SELECTIVE INHIBITORS OF HISTONE DEACETYLASE ISOFORM 6 AND METHODS THEREOF” (DANA-FARBER CANCER INSTITUTE, INC., priority 2011, published 2015).
